Source: patent publication US11180474B2 (BRISTOL-MYERS SQUIBB COMPANY, priority 2016, dated 2021)

Columns and labels:
[1] = target: T1, human TLR9 (Homo sapiens, UniProt Q9NR96); experiment: TLR9 inhibition reporter assay (HEK-Blue cells, SEAP reporter, ODN2006 stimulation); type: cell-based; conditions: HEK-Blue cells overexpressing human TLR9, ODN2006 5 nM
T1 construct: host or cells: HEK-Blue cells
T1 sequence (Q9NR96 26-1032): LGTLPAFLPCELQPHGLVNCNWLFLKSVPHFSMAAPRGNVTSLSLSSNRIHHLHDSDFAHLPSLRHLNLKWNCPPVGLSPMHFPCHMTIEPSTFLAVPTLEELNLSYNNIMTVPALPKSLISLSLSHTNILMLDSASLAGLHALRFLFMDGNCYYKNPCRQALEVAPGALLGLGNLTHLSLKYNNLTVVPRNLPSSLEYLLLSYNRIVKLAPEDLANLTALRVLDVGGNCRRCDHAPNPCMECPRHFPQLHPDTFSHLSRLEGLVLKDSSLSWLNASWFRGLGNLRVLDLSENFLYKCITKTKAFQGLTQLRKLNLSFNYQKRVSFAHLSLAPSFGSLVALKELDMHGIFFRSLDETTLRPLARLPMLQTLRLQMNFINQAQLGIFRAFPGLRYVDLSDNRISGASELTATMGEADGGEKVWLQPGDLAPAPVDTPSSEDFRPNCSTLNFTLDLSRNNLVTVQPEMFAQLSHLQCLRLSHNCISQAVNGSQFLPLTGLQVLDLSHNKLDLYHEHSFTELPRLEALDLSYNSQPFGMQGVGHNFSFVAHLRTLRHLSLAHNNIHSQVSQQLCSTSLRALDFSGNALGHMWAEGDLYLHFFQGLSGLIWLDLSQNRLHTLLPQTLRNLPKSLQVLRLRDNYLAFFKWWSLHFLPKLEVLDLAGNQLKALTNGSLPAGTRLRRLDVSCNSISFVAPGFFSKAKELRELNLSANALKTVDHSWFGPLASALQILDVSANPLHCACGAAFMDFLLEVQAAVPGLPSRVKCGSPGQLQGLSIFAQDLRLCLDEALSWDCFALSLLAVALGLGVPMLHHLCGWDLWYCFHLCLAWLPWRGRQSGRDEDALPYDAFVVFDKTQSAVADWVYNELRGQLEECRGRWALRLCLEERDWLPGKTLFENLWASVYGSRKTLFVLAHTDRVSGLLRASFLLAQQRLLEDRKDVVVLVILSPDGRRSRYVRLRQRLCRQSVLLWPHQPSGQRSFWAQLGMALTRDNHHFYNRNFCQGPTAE
Summary of the method: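 Compound treatment: 30 min, RT, 0.05 nM–50 μM final. Agonist: TLR7 gardiquimod 7.5 μM; TLR8 R848 15.9 μM; TLR9 ODN2006 5 nM. Incubation 22 h, 37 °C, 5% CO2. Readout SEAP, HEK-Blue Detection.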

[2] = target: T2, human TLR7 (Homo sapiens, UniProt Q9NYK1); experiment: TLR7 inhibition reporter assay (HEK-Blue cells, SEAP reporter, gardiquimod stimulation); type: cell-based; conditions: HEK-Blue cells overexpressing human TLR7, gardiquimod 7.5 μM
T2 construct: host or cells: HEK-Blue cells
T2 sequence (Q9NYK1 27-1049): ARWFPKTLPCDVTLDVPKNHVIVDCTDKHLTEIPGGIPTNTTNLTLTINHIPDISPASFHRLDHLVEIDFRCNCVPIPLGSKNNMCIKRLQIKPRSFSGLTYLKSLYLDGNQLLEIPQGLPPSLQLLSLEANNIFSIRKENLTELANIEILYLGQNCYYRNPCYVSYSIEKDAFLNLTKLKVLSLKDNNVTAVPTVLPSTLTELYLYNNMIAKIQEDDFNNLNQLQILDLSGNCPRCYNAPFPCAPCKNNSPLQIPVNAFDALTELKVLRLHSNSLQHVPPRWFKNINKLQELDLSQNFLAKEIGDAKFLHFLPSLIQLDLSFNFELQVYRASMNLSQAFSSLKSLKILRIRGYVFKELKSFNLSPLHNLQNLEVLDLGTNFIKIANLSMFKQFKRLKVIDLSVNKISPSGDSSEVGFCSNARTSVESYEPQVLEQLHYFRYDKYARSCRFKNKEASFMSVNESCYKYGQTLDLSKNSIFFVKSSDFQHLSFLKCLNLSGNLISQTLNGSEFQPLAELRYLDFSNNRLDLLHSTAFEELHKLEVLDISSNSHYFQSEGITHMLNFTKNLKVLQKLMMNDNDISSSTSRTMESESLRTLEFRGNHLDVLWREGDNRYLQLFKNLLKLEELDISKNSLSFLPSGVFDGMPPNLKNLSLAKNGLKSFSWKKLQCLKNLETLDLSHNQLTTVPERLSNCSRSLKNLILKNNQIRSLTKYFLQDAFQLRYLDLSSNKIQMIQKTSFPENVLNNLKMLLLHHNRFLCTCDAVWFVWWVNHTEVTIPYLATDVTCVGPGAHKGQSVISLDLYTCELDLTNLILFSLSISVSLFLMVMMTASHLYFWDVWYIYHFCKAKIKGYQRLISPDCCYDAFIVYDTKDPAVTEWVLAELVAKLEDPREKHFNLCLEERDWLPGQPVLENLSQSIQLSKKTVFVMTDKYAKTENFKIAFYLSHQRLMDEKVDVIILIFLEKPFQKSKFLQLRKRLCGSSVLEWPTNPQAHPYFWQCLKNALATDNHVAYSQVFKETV
Summary of the method: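 22 h, 37° C, 5% CO2 incubation; compounds 0.05 nM-50 μM final; TLR7 cells 15000/well, TLR8 20,000/well. Readout: SEAP via HEK-Blue Detection medium. % inhibition = signal reduction versus agonist + DMSO wells, referenced to known inhibitor.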

Compound | IC50 [1] | IC50 [2]
COc1ccc(-c2[nH]c3ccc(C4CCN(C(=O)CNCCC(C)O)CC4)cc3c2C(C)C)cc1OC (centres unmarked) [Example 237, 1-(4-(2-(3,4-dimethoxyphenyl)-3-isopropyl-1H-indol-5-yl)piperidin-1-yl)-2-((3-hydroxybutyl)amino)ethan-1-one] | 1160 nM | 15 nM
COc1ccc(-c2[nH]c3ccc(C4CCN(C(=O)CN5CCCN(C(C)=O)CC5)CC4)cc3c2C(C)C)cc1OC [Example 222, 2-(4-acetyl-1,4-diazepan-1-yl)-1-(4-(2-(3,4-dimethoxyphenyl)-3-isopropyl-1H-indol-5-yl)piperidin-1-yl)ethan-1-one] | 6880 nM | 45 nM
COc1ccc(-c2[nH]c3ccc(C4CCN(C(=O)CN5CCC[C@H](C(=O)N6CCN(C(C)C)CC6)C5)CC4)cc3c2C(C)C)cc1OC [Example 286, (S)-1-(4-(2-(3,4-dimethoxyphenyl)-3-isopropyl-1H-indol-5-yl)piperidin-1-yl)-2-(3-(4-isopropylpiperazine-1-carbonyl)piperidin-1-yl)ethan-1-one] | 603 nM | 5 nM
COc1ccc(-c2[nH]c3ccc(C4CCN(Cc5cnc[nH]5)CC4)cc3c2C(C)C)cc1OC [Example 268, 5-(1-((1H-imidazol-5-yl)methyl)piperidin-4-yl)-2-(3,4-dimethoxyphenyl)-3-isopropyl-1H-indole] | 1480 nM | 31 nM
COc1ccc(-c2[nH]c3ccc(C4CCN(C(=O)CN5CCCN(C)CC5)CC4)cc3c2C(C)C)cc1OC [Example 239, 1-(4-(2-(3,4-dimethoxyphenyl)-3-isopropyl-1H-indol-5-yl)piperidin-1-yl)-2-(4-methyl-1,4-diazepan-1-yl)ethan-1-one] | 516 nM | 11 nM
COc1ccc(-c2[nH]c3ccc(C4CCN(C(=O)CNC[C@H](O)CO)CC4)cc3c2C(C)C)cc1OC [Example 235, (S)-2-((2,3-dihydroxypropyl)amino)-1-(4-(2-(3,4-dimethoxyphenyl)-3-isopropyl-1H-indol-5-yl)piperidin-1-yl)ethan-1-one] | 774 nM | 15 nM

Next, values leading:

IC50 [1] | IC50 [2] | Compound
579 nM | 52 nM | COc1ccc(-c2[nH]c3ccc(C4CCN(C(=O)CN5CCC[C@@H](C(=O)N6CCN(CCN7CCCC7)CC6)C5)CC4)cc3c2C(C)C)cc1OC [Example 307, (R)-1-(4-(2-(3,4-dimethoxyphenyl)-3-isopropyl-1H-indol-5-yl)piperidin-1-yl)-2-(3-(4-(2-(pyrrolidin-1-yl)ethyl)piperazine-1-carbonyl)piperidin-1-yl)ethan-1-one]
561 nM | 27 nM | COc1ccc(-c2[nH]c3ccc(C4CCN(C(=O)CN5CCC[C@@H](C(=O)N6CCC(N(C)C)CC6)C5)CC4)cc3c2C(C)C)cc1OC [Example 305, (R)-1-(4-(2-(3,4-dimethoxyphenyl)-3-isopropyl-1H-indol-5-yl)piperidin-1-yl)-2-(3-(4-(dimethylamino)piperidine-1-carbonyl)piperidin-1-yl)ethan-1-one]
2680 nM | 153 nM | COc1ccc(-c2[nH]c3ccc(C4CCN(C(=O)CN5CCC[C@@H](C(=O)N6CCC(CCO)CC6)C5)CC4)cc3c2C(C)C)cc1OC [Example 306, (R)-1-(4-(2-(3,4-dimethoxyphenyl)-3-isopropyl-1H-indol-5-yl)piperidin-1-yl)-2-(3-(4-(2-hydroxyethyl)piperidine-1-carbonyl)piperidin-1-yl)ethan-1-one]
3030 nM | 35 nM | COc1ccc(-c2[nH]c3ccc(C4CCN(C(=O)CN5CCC[C@H](C(=O)NC6(CO)CCCC6)C5)CC4)cc3c2C(C)C)cc1OC [Example 296, (S)-1-(2-(4-(2-(3,4-dimethoxyphenyl)-3-isopropyl-1H-indol-5-yl)piperidin-1-yl)-2-oxoethyl)-N-(1-(hydroxymethyl)cyclopentyl)piperidine-3-carboxamide]
